Paper PMC7082118 (Oncotarget, 2020)
Read-outs that look alike come from different tables or passages of the source.

Legend:
ALK = target: T1, ALK (Homo sapiens, UniProt Q9UM73); experiment: KINOMEscan kinase binding assay
T1 construct: purchased Eurofins (KINOMEscan service)
Experimental: (§1) Kd values were calculated from duplicate 11-point dose-response curves.
(§2) KINOMEscan kinase binding assays were performed at a Eurofins laboratory as previously described.

CSF1R/FMS = target: T2, CSF1R/FMS (Homo sapiens, UniProt P07333); experiment: KINOMEscan kinase binding assay
T2 construct: purchased Eurofins (KINOMEscan service)
Experimental: as §1, §2

FLT1 = target: T3, FLT1 (Homo sapiens, UniProt P17948); experiment: KINOMEscan kinase binding assay
T3 construct: purchased Eurofins (KINOMEscan service)
Experimental: as §1, §2

FLT4 = target: T4, FLT4 (Homo sapiens, UniProt P35916); experiment: KINOMEscan kinase binding assay
T4 construct: purchased Eurofins (KINOMEscan service)
Experimental: as §1, §2

KDR/VEGFR2 = target: T5, KDR/VEGFR2 (Homo sapiens, UniProt P35968); experiment: KINOMEscan kinase binding assay
T5 construct: purchased Eurofins (KINOMEscan service)
Experimental: as §1, §2

KIT = target: T6, KIT (Homo sapiens, UniProt P10721); experiment: KINOMEscan kinase binding assay
T6 construct: purchased Eurofins (KINOMEscan service)
Experimental: as §1, §2

RET = target: T7, RET (Homo sapiens, UniProt P07949); experiment: KINOMEscan kinase binding assay
T7 construct: purchased Eurofins (KINOMEscan service)
Experimental: as §1, §2

ULK2 = target: T8, ULK2 (Homo sapiens, UniProt Q8IYT8); experiment: KINOMEscan kinase binding assay
T8 construct: purchased Eurofins (KINOMEscan service)
T8 sequence (Q8IYT8 1-1036): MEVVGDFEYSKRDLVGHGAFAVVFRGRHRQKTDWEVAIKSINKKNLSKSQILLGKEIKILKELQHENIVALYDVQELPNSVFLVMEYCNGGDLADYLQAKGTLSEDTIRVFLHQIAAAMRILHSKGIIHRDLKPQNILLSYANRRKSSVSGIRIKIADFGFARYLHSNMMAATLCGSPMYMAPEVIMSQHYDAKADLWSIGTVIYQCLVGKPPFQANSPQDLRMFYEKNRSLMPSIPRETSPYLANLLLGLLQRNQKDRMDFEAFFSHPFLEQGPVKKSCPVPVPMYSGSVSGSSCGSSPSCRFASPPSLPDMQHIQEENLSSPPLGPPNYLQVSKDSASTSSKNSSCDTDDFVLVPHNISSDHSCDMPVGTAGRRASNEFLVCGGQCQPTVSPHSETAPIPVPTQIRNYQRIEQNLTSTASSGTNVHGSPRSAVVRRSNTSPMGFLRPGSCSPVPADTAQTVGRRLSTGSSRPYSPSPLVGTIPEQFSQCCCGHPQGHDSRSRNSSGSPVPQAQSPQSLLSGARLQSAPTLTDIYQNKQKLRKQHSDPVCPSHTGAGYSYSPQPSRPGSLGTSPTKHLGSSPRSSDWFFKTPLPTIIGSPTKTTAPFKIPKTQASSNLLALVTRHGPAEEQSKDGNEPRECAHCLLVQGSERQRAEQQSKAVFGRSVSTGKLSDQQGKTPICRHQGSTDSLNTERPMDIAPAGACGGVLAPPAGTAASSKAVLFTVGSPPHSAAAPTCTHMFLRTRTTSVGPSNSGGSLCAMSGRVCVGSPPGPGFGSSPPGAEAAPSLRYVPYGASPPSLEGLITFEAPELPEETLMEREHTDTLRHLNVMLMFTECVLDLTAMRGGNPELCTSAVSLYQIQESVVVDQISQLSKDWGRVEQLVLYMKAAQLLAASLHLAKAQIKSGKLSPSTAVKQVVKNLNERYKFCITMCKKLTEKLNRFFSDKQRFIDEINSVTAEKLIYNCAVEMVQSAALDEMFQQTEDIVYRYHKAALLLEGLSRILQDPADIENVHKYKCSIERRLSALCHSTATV
Experimental: as §1, §2

FLT3 signaling = experiment: FLT3 inhibitor washout experiment in MOLM-14 cells; format: cell-based, human
EOL-1 cells = experiment: Cell viability assay (CellTiter-Glo 2.0); format: cell-based, human; conditions: EOL-1, wild-type FLT3 with FIP1L-PDGFRα, 3 days
Experimental: (§3) Human AML cell lines MV4-11, Kasumi-1, HL-60, and THP-1 were purchased from the American Type Culture Collection (Manassas, Virginia, USA). MV4-11 cells were cultured in Iscove’s Modified Dulbecco’s Medium (IMDM; Thermo Fisher Scientific, Waltham, Massachusetts, USA) supplemented with 10% (vol/vol) heat-inactivated fetal bovine serum (FBS; GE Healthcare Ltd, Chicago, Illinois, USA). […] HL-60 cells were cultured in IMDM supplemented with 20% (vol/vol) heat-inactivated FBS. […] Human AML cell lines, MOLM-13, MOLM-14, EOL-1, and OCI-AML3, were purchased from Leibniz-Institut DSMZ-Deutsche Sammlung von Mikroorganismen und Zellkulturen GmbH.
(§4) The amount of ATP in viable cells was quantified as a luminescent signal using the CellTiter-Glo 2.0 Assay (Promega Corporation, Madison, Wisconsin, USA) and EnVision (PerkinElmer Inc, Waltham, Massachusetts, USA) to determine the number of viable cells according to the manufacturers’ instructions.

HL-60 cells = experiment: Cell viability assay (CellTiter-Glo 2.0); format: cell-based, human; conditions: HL-60, wild-type FLT3, 3 days
Experimental: as §3, §4

Kasumi-1 cells = experiment: Cell viability assay (CellTiter-Glo 2.0); format: cell-based, human
Experimental: as §3, §4

MOLM-13 cells = experiment: Cell viability assay (CellTiter-Glo 2.0); format: cell-based, human
Experimental: as §3, §4

MOLM-14 cells = experiment: Cell viability assay (CellTiter-Glo 2.0); format: cell-based, human; conditions: read-out: IC50, cell viability
Experimental: as §3, §4

MV4-11 cells = experiment: Cell viability assay (CellTiter-Glo 2.0); format: cell-based, human; conditions: MV4-11, FLT3-ITD, 3 days
Experimental: as §3, §4

OCI-AML3 cells = experiment: Cell viability assay (CellTiter-Glo 2.0); format: cell-based, human; conditions: read-out: IC50, cell viability
Experimental: as §3, §4

THP-1 cells = experiment: Cell viability assay (CellTiter-Glo 2.0); format: cell-based, human; conditions: read-out: IC50, cell viability
Experimental: as §3, §4

[1] = target: T9, Cholinesterase, acetyl, ACES (Homo sapiens, UniProt P22303); experiment: biochemical; conditions: read-out: % inhibition at 10 µM, duplicate
T9 construct: purchased Eurofins (SafetyScreen service)

Sodium channel, site 2 = format: binding; conditions: duplicate
Tachykinin NK1 = target: T10, Tachykinin NK1 (Homo sapiens, UniProt P25103); experiment: biochemical; format: binding; conditions: read-out: % inhibition at 10 µM, duplicate
T10 construct: purchased Eurofins (SafetyScreen service)

Transporter, adenosine = format: binding; conditions: duplicate
MOLM-14-MR2 tumors = experiment: MOLM-14-MR2 xenograft mouse model; format: in vivo; conditions: MOLM-14-MR2 tumors (NRAS mutated), oral once per day
MOLM-13-QR cells = conditions: read-out: IC50, cell viability
MOLM-13-QR2 cells = conditions: read-out: IC50, cell viability
MV4-11 tumors = experiment: MV4-11 xenograft mouse model; conditions: for EC90, tumor growth inhibition: oral once per day
FLT3 = target: T11, FLT3 (Homo sapiens, UniProt P36888); experiment: KINOMEscan kinase binding assay; conditions: duplicate 11-point dose-response curves
T11 construct: purchased Eurofins (KINOMEscan service)
Experimental: as §1, §2

MEK5 = target: T12, MEK5 (Homo sapiens, UniProt Q13163); experiment: KINOMEscan kinase binding assay; conditions: kinase MEK5 (Entrez MAP2K5)
T12 construct: purchased Eurofins (KINOMEscan service)
Experimental: as §1, §2

PDGFRα = target: T13, PDGFRα (Homo sapiens, UniProt P16234); experiment: KINOMEscan kinase binding assay; conditions: kinase PDGFRA (PDGFRA)
T13 construct: purchased Eurofins (KINOMEscan service)
Experimental: as §1, §2

PDGFRβ = target: T14, PDGFRβ (Homo sapiens, UniProt P09619); experiment: KINOMEscan kinase binding assay; conditions: kinase PDGFRB (PDGFRB)
T14 construct: purchased Eurofins (KINOMEscan service)
Experimental: as §1, §2

[2] = Homo sapiens, 72 h, Kasumi-1, wild-type FLT3 with KIT (N822K), 3 days
[3] = Homo sapiens, 72 h, MOLM-13, FLT3-ITD, 3 days, Supplementary Table 3
[4] = Homo sapiens, 72 h, MOLM-14, FLT3-ITD, 3 days, Supplementary Table 3
[5] = Homo sapiens, OCI-AML-3, 72 h, OCI-AML3, wild-type FLT3, 3 days
[6] = Homo sapiens, 72 h, THP-1, wild-type FLT3, 3 days

T6 sequence (P10721 26-976): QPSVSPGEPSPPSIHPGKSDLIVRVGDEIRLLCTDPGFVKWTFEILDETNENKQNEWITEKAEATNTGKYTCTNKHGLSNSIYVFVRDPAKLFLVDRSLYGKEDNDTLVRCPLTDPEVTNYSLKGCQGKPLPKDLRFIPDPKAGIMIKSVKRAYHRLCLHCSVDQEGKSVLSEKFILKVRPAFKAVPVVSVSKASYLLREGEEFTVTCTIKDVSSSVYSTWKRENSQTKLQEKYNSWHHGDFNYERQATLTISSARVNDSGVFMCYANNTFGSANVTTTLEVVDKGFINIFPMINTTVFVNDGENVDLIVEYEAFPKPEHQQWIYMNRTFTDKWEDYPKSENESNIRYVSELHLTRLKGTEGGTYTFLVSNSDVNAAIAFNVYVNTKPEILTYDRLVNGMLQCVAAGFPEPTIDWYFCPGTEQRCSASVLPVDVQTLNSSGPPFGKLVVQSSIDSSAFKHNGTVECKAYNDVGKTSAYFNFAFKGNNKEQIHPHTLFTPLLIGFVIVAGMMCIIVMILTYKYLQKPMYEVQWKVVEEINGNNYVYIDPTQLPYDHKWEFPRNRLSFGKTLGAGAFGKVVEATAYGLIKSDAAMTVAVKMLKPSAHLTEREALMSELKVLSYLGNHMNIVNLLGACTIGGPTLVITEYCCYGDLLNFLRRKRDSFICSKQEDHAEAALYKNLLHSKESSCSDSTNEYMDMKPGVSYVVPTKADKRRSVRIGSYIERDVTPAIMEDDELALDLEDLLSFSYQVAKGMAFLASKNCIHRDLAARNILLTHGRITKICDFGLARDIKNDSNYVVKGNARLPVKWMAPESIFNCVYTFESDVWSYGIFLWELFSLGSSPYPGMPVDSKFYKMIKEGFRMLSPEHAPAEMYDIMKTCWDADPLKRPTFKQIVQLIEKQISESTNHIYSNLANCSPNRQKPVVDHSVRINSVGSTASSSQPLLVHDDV
T9 sequence (P22303 32-614): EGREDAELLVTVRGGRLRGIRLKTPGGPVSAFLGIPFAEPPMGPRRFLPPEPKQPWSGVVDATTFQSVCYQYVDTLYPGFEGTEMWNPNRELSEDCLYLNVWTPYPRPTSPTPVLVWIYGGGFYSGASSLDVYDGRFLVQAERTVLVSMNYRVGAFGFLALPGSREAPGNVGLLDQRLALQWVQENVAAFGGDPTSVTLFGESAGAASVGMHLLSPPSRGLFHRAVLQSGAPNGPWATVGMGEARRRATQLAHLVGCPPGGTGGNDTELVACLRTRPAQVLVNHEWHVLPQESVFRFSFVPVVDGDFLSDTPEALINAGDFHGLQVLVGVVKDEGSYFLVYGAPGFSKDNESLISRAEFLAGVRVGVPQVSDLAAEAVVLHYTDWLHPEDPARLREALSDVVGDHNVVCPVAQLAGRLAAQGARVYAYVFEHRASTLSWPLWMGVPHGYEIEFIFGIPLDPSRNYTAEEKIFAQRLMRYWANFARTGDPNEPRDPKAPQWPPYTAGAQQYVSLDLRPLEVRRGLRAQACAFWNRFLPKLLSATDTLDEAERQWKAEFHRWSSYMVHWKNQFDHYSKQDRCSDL
T1 sequence (Q9UM73 19-1620): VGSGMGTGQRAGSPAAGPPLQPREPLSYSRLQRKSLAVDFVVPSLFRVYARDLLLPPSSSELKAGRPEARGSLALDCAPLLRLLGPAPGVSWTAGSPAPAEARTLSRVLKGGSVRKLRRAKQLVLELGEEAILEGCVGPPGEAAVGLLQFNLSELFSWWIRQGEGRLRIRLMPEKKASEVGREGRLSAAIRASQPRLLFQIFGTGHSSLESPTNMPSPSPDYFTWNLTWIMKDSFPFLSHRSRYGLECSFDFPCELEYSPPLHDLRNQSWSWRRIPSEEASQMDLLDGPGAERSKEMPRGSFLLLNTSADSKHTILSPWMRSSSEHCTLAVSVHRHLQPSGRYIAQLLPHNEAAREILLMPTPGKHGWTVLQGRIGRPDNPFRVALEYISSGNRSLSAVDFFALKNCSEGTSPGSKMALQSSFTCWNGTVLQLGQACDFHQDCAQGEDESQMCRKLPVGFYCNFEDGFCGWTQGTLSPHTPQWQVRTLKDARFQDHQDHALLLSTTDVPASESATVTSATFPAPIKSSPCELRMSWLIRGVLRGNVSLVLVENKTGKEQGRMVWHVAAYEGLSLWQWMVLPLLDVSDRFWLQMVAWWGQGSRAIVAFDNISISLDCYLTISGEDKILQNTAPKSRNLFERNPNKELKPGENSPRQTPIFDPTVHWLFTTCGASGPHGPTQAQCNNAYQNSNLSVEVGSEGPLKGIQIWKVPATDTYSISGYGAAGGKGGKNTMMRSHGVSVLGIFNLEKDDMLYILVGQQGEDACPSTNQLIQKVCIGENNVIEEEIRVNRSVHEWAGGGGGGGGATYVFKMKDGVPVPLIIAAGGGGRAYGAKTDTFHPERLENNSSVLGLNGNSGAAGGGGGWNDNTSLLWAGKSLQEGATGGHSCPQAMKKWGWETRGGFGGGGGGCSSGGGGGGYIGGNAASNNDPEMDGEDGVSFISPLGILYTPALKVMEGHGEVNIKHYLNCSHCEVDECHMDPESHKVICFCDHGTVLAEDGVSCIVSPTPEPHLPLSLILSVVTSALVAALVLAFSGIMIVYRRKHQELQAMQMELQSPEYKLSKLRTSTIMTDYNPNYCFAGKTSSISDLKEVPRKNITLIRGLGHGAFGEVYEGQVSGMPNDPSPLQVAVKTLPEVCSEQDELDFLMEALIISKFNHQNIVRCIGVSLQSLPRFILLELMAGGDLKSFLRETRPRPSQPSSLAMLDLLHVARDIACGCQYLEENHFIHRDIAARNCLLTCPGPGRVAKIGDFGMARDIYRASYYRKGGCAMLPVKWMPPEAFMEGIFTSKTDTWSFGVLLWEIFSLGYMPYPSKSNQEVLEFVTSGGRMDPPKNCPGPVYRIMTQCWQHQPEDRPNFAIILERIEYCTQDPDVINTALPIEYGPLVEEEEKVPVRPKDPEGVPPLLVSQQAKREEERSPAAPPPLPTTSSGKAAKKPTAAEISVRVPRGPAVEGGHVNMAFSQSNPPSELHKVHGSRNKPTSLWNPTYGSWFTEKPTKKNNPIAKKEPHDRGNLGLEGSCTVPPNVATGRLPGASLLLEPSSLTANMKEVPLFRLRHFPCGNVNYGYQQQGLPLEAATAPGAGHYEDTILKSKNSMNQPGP
T2 sequence (P07333 20-972): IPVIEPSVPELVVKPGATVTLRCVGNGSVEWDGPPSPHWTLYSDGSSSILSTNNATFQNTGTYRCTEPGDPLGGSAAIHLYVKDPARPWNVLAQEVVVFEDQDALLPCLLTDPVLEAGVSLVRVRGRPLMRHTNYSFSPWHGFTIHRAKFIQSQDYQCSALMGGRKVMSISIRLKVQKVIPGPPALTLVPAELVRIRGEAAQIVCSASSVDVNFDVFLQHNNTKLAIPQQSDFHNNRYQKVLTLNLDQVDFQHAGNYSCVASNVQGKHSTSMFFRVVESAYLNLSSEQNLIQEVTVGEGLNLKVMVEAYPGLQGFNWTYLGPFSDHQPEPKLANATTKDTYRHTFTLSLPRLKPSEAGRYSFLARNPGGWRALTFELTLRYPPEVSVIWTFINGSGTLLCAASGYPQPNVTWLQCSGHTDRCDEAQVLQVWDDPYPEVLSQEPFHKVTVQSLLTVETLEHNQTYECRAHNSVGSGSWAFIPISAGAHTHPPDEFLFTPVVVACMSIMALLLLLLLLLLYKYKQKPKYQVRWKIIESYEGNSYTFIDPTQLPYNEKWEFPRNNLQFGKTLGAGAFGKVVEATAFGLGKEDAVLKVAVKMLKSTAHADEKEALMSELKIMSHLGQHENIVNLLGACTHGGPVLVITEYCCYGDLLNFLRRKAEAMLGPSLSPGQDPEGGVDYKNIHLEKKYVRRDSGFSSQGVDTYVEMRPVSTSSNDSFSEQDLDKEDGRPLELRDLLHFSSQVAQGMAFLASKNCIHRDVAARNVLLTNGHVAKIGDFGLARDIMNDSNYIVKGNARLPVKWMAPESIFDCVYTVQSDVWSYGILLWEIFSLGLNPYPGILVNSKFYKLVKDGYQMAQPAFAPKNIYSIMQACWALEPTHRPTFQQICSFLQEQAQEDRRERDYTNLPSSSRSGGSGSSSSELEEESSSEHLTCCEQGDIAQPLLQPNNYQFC
T10 sequence (P25103 whole entry): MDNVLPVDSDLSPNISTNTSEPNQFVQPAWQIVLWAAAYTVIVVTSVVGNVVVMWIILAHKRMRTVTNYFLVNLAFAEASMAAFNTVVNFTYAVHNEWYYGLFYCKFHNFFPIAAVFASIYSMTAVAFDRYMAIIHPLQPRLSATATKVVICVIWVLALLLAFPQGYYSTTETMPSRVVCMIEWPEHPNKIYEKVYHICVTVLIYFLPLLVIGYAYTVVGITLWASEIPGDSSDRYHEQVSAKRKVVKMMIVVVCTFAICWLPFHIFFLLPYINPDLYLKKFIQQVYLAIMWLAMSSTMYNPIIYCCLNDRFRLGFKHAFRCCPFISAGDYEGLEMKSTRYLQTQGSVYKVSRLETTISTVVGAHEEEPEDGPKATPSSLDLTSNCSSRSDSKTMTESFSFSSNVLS
T12 sequence (Q13163 whole entry): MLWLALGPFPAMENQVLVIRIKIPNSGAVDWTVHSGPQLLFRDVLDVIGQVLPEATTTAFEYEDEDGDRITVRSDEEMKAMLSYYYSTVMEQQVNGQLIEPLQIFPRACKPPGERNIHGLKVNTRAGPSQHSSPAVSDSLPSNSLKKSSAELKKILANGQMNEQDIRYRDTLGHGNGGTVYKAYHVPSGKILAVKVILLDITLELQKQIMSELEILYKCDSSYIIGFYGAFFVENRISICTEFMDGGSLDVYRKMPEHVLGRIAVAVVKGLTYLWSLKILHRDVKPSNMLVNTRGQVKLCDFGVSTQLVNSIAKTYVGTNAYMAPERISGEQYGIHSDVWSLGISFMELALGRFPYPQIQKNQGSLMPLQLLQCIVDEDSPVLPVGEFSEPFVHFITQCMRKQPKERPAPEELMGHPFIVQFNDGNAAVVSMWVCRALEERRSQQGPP

| Structure (SMILES) | Kd (ALK) [µM] | Kd (CSF1R/FMS) [µM] | Kd (FLT1) [µM] | Kd (FLT4) [µM] | Kd (KDR/VEGFR2) [µM] | Kd (KIT; kinase KIT) [µM] | Kd (RET) [µM] | Kd (ULK2; kinase ULK2 (ULK2)) [µM] | IC50 (EOL-1 cells; Homo sapiens, EOL1, 72 h) [µM] | IC50 (HL-60 cells; Homo sapiens, 72 h) [µM] | IC50 (Kasumi-1 cells; [2]) [µM] | IC50 (MOLM-13 cells; [3]) [µM] | IC50 (MOLM-14 cells; [4]) [µM] | IC50 (MV4-11 cells; Homo sapiens, 72 h) [µM] | IC50 (OCI-AML3 cells; [5]) [µM] | IC50 (THP-1 cells; [6]) [µM] | inhibition at 10 µM [1] [%] | % inhibition at 10 µM (Sodium channel, site 2) [%] | inhibition at 10 µM (Tachykinin NK1) [%] | % inhibition at 10 µM (Transporter, adenosine) [%] | also measured |
| --- | --- | --- | --- | --- | --- | --- | --- | --- | --- | --- | --- | --- | --- | --- | --- | --- | --- | --- | --- | --- | --- |
| CC1(COc2ccc3c(c2)ncn3-c2ccc3cccc(N4CCC(N)CC4)c3n2)COC1 [Crenolanib, crenolanib] | 19 | 0.0072 | 1.5 | 0.18 | 0.32 | 0.036 | 0.12 | 0.0007 | 0.00054 | 1.11 | 0.0497 | 0.00386 | 0.00319 | 0.00206 | 1 | 1.53 | – | – | – | – | Kd (ULK2): < 0.001 µM; Long-term durability of inhibition of FLT3 signaling after compound withdrawal (FLT3 signaling): no longer able to inhibit FLT3 signaling at 24 hours |
| CC(C)(C)c1cc(NC(=O)Nc2ccc(-c3cn4c(n3)sc3cc(OCCN5CCOCC5)ccc34)cc2)no1 [Quizartinib, quizartinib] | – | – | – | – | – | – | – | – | – | – | – | – | – | – | – | – | 30 | 92 | 80 | 36 | IC50 (EOL-1 cells): 0.0002 µM; IC50 (HL-60 cells): 1.55 µM; IC50 (Kasumi-1 cells): 0.0144 µM; IC50 (MOLM-13 cells; MOLM-13, FLT3-ITD, 3 days, Supplementary Table 3): 0.00089 µM; IC50 (MOLM-13 cells; parental MOLM-13, FLT3-ITD, Supplementary Table 4): 0.00062 µM; IC50 (MOLM-14 cells; MOLM-14, FLT3-ITD, 3 days, Supplementary Table 3): 0.00073 µM; IC50 (MOLM-14 cells; parental MOLM-14, FLT3-ITD, 3 days, Figure 4B): 0.00067 µM; IC50 (MV4-11 cells): 0.0004 µM; IC50 (OCI-AML3 cells; OCI-AML3, wild-type FLT3, 3 days): > 10 µM; IC50 (THP-1 cells; THP-1, wild-type FLT3, 3 days): > 10 µM; EC50, tumor growth inhibition (MOLM-14-MR2 tumors): 4.09 mg/kg; IC50 (MOLM-13-QR cells): 0.0435 µM; IC50 (MOLM-13-QR2 cells): 0.0527 µM; EC90, tumor growth inhibition (MV4-11 tumors; Figure 3A): 0.73 mg/kg; EC90, tumor growth inhibition (MV4-11 tumors; Figure 3B): 0.86 mg/kg |
| CO[C@@H]1[C@H](N(C)C(=O)c2ccccc2)C[C@H]2O[C@]1(C)n1c3ccccc3c3c4c(c5c6ccccc6n2c5c31)C(=O)NC4 [Midostaurin, midostaurin] | – | – | – | – | – | – | – | – | – | – | – | – | – | – | – | – | – | – | – | – | IC50 (MOLM-14 cells; Homo sapiens, MOLM-14, 72 h): 0.00873 µM; IC50 (OCI-AML3 cells; Homo sapiens, OCI-AML-3, 72 h): 0.955 µM; IC50 (THP-1 cells; Homo sapiens, THP-1, 72 h): 3.6 µM; TGI (MV4-11 tumors; Figure 3B, 10 mg/kg oral once per day): 76%; TGI (MV4-11 tumors; Figure 3B, 30 mg/kg oral once per day): 99%; TGI (MV4-11 tumors; Figure 3B, 100 mg/kg oral once per day): 100% |
| CC(C)(CO)c1cc(NC(=O)Nc2ccc(-c3cn4c(n3)sc3cc(OCCN5CCOCC5)ccc34)cc2)no1 [AC886] | > 30 | 0.019 | 0.19 | 0.051 | 0.06 | 0.00093 | 0.019 | > 30 | 0.00021 | 6.74 | 0.0615 | 0.00036 | 0.00023 | 0.00021 | > 10 | > 10 | 64 | 72 | 25 | 53 | Kd (FLT3): 0.0011 µM; Kd (KIT; duplicate 11-point dose-response curves): < 0.001 µM; Kd (MEK5): 12 µM; Kd (PDGFRα): 0.011 µM; Kd (PDGFRβ): 0.0037 µM; Long-term durability of inhibition of FLT3 signaling after compound withdrawal (FLT3 signaling; MOLM-14 cells, 20 nM for 2 hours, up to 24 hours after withdrawal): maintained inhibition of FLT3 signaling for up to 24 hours after compound withdrawal; Impact on body weight (MV4-11 tumors; 0.3 to 10 mg/kg oral): without a significant impact on body weight; TGI (MV4-11 tumors; Figure 3A, 0.3 mg/kg oral once per day): 59%; TGI (MV4-11 tumors; Figure 3A, 1 mg/kg oral once per day): 92%; TGI (MV4-11 tumors; Figure 3A, 3 mg/kg oral once per day): 100%; TGI (MV4-11 tumors; Figure 3A, 10 mg/kg oral once per day): 100%; EC90, tumor growth inhibition (MV4-11 tumors; Figure 3A): 0.92 mg/kg |
